Measurements taken from US7763602B2, “Pyrrole derivatives as antimycobacterial compounds” (priority 2002, dated 2010).
In brackets after ≈: the same amount, converted by molar mass.

What was measured:
Assay type in all cases: cell-based, Mycobacterium tuberculosis
[1] = test system: M. tuberculosis H37Rv ATCC 27294; assay: In vitro growth inhibition assay, BACTEC 460 TB system; parameters: key: +: If ΔGI of test vial is less than that of the control vial the culture was sensitive to the test compound; conditions: final concentration 6.25 μg/ml
[2] = test system: M. tuberculosis 27294; assay: In vitro agar dilution assay (MIC), reference strain; conditions: for MIC: Mycobacterium tuberculosis, 27294, Table I, read-out: MIC (μg/ml) against M. tuberculosis-27294; for MIC (μg/ml) against M. tuberculosis-27294: Table I
[3] = test system: M. tuberculosis clinical isolates, sensitive; assay: microbe, parasite or virus in culture; conditions: for MIC: Mycobacterium tuberculosis, read-out: MIC (μg/ml) against Clinical isolates Sensitive; for MIC (μg/ml) against Clinical isolates Sensitive: Table I, agar dilution

| SMILES | Growth inhibition of M. tuberculosis 27294 [1] | MIC [2] [µg/mL] | MIC [3] [µg/mL] | MIC (μg/ml) against M. tuberculosis-27294 [2] [µg/mL] | MIC (μg/ml) against Clinical isolates Sensitive [3] [µg/mL] |
| --- | --- | --- | --- | --- | --- |
| Cc1c(CN2CCN(c3ccc(F)cc3)CC2)cc(-c2ccc(Cl)cc2)n1-c1ccc(Cl)cc1 [Compound No. 1, 1-{[1,5-bis(4-chlorophenyl)-2-methylpyrrol-3-yl]methyl}-4-(4-fluorophenyl) piperazine] | + | 0.5 (≈ 1.01 µM) | 0.5 to 2 (≈ 1.01 to 4.04 µM) |  |  |
| Cc1c(CN2CCN(Cc3ccc4c(c3)OCO4)CC2)cc(-c2ccc(Cl)cc2)n1-c1ccc(Cl)cc1 [Compound No. 8, 5-[(4-{[1,5-bis(4-chlorophenyl)-2-methylpyrrol-3-yl]methyl}piperazinyl)methyl]-2H-benzo[d]1,3-dioxolane] | + |  |  | 1.0 (≈ 1.87 µM) | 0.5 to 1.0 |
| Cc1cc(CN2CCN(c3cccc(C(F)(F)F)c3)CC2)c(-c2ccccc2)n1NC(=O)c1ccncc1 [Compound No. 23, N-(3-{[4-(3-trifluoromethylphenyl)piperazinyl]methyl}-5-methyl-2-phenylpyrrolyl)-4-pyridylcarboxamide] | + |  |  | 0.25 (≈ 0.481 µM) | 0.25 to 1.0 |
| CO[C@H]1/C=C/O[C@@]2(C)Oc3c(C)c(O)c4c(O)c(c(/C=N/N5CCN(C)CC5)c(O)c4c3C2=O)NC(=O)/C(C)=C\C=C\[C@H](C)[C@H](O)[C@@H](C)[C@@H](O)[C@@H](C)[C@H](OC(C)=O)[C@@H]1C [Rifampicin, reference compound] | + | 0.25 (≈ 0.304 µM) | 0.25 (≈ 0.304 µM) |  |  |
| Cc1c(CN2CCN(c3ccccn3)CC2)cc(-c2ccc(Cl)cc2)n1-c1ccc(Cl)cc1 [compound 4, 1-{[1,5-bis(4-chlorophenyl)-2-methylpyrrol-3-yl]methyl}-4-(2-pyridyl) piperazine] | + | 0.5 (≈ 1.05 µM) | 0.25 to 1 (≈ 0.524 to 2.09 µM) |  |  |
| Cc1c(CN2CCCC2)cc(-c2ccccc2)n1NC(=O)c1ccncc1 [compound 19, N-[2-methyl-5-phenyl-3-(pyrrolidinylmethyl)pyrrolyl]-4-pyridylcarboxamide] |  |  |  | 16.0 (≈ 44.4 µM) |  |
| Cc1cc(CN2CCN(Cc3ccc4c(c3)OCO4)CC2)c(-c2ccccc2)n1NC(=O)c1ccncc1 [compound 24, N-(3-{[4-(2H-benzo[d]1,3-dioxolan-5-ylmethyl)piperazinyl]methyl}-5-methyl-2-phenylpyrrolyl)-4-pyridylcarboxamide] | + |  |  | 8.0 (≈ 15.7 µM) |  |
| Cc1c(CN2CCN(c3ccccn3)CC2)cc(-c2ccccc2)n1NC(=O)c1cnccn1 [compound 28, N-(3-{[4-(2-pyridyl)piperazinyl]methyl}-2-methyl-5-phenylpyrrolyl)pyrazin-2-ylcarboxamide] |  |  |  | 2.0 (≈ 4.41 µM) | 1.0 to 4.0 |
| COc1ccccc1N1CCN(Cc2cc(C)n(NC(=O)c3cnccn3)c2-c2ccccc2)CC1 [compound 32, N-(3-{[4-(2-methoxyphenyl)piperazinyl]methyl}-5-methyl-2-phenylpyrrolyl) pyrazin-2-ylcarboxamide] |  |  |  | >16.0 | >16.0 |
| Cc1c(CN2CCN(c3ccc(F)cc3)CC2)cc(-c2ccc(Cl)cc2)n1NC(=O)c1cnccn1 [compound 37, N-(5-(4-chlorophenyl)-3-{[4-(4-fluorophenyl)piperazinyl]methyl}-2-methylpyrrolyl)pyrazin-2-ylcarboxamide] |  |  |  | 16.0 (≈ 31.7 µM) | 8 to 16.0 |
| COc1ccccc1N1CCN(Cc2cc(-c3ccc(Cl)cc3)n(NC(=O)c3cnccn3)c2C)CC1 [compound 38, N-(5-(4-chlorophenyl)-3-{[4-(2-methoxyphenyl)piperazinyl]methyl}-2-methylpyrrolyl)pyrazin-2-ylcarboxamide] |  |  |  | >16.0 | >16.0 |
| Cc1cc(CN2CCN(c3ccc(F)cc3)CC2)c(-c2ccc(Cl)cc2)n1NC(=O)c1cnccn1 [compound 41, N-(2-(4-chlorophenyl)-3-{[4-(4-fluorophenyl)piperazinyl]methyl}-5-methylpyrrolyl)pyrazin-2-ylcarboxamide] |  |  |  | >16.0 | >16.0 |
| Cc1cc(CN2CCN(c3cccc(C(F)(F)F)c3)CC2)c(-c2ccc(Cl)cc2)n1NC(=O)c1cnccn1 [compound 43, N-(2-(4-chlorophenyl)-3-{[4-(3-trifluoromethylphenyl)piperazinyl]methyl}-5-methylpyrrolyl)pyrazin-2-ylcarboxamide] |  |  |  | >16.0 | >16.0 |
| Cc1c(CN2CCN(c3ccc(F)cc3)CC2)cc(-c2ccccc2)n1-c1ccc(F)cc1F [compound 51, 1-{[1-(2,4-difluorophenyl)-2-methyl-5-phenylpyrrol-3-yl]methyl}-4-(4-fluorophenyl)piperazine] |  | > 16 | > 16 |  |  |
| Cc1c(CN2CCN(c3cccc(C(F)(F)F)c3)CC2)cc(-c2ccccc2)n1-c1ccc(F)cc1F [compound 53, 1-{[1-(2,4-difluorophenyl)-2-methyl-5-phenylpyrrol-3-yl]methyl}-4-(3-trifluoromethylphenyl)piperazine] |  | > 16 | > 16 |  |  |
| Cc1cc(CN2CCN(c3ccc(F)cc3)CC2)c(-c2ccccc2)n1-c1ccc(F)cc1F [compound 55, 1-{[1-(2,4-difluorophenyl)-5-methyl-2-phenylpyrrol-3-yl]methyl}-4-(4-fluorophenyl) piperazine] |  | > 16 | > 16 |  |  |
| COc1ccccc1N1CCN(Cc2cc(-c3ccc(Cl)cc3)n(-c3cccc4ccccc34)c2C)CC1 [compound 59, 1-{[5-(4-chlorophenyl)-2-methyl-1-naphthylpyrrol-3-yl]methyl}-4-(2-methoxyphenyl)piperazine] |  |  |  | >16.0 | >16.0 |
| Cc1cc(CN2CCN(c3cccc(C(F)(F)F)c3)CC2)c(-c2ccc(Cl)cc2)n1-c1cccc2ccccc12 [compound 64, 1-{[2-(4-chlorophenyl)-5-methyl-1-naphthylpyrrol-3-yl]methyl}-4-(3-trifluoromethylphenyl)piperazine] |  |  |  | >16.0 | >16.0 |
| CCC(CO)n1c(C)c(CN2CCSCC2)c(CO)c1-c1ccccc1 (stereo not drawn) [compound 90, 2-[3-(hydroxymethyl)-5-methyl-2-phenyl-4-(1,4-thiazaperhydroin-4-ylmethyl)-pyrrolyl]butan-1-ol] |  |  |  | >16.0 | >16.0 |
